Consider 1 molecule from patent US7622472B2, “Combination of Src kinase inhibitors and chemotherapeutic agents for the treatment of proliferative diseases” (priority 2003, dated 2009).

Test [1] deals with Src family kinases (SFKs, including: Fyn, Yes, Yrk, Blk, Fgr, Hck, Lyn, and Frk subfamily members Frk/Rak and Iyk/Bsk). Nature of the test: Inhibition of Src family kinases (statement, no method). In kind it is biochemical. The note with it: competes with ATP for the ATP-binding site in the kinase domain.
In test [2] the test system is PC3 human prostate carcinoma xenografts. Nature of the test: In vivo antitumor testing, PC3 human prostate carcinoma xenografts in nude mice. The note with it: single agent compound 1, 10 mpk, orally, twice-a-day, 5-day-on, 2-day-off, 14 days. From the text: Tumors were propagated as subcutaneous transplants using tumor fragments obtained from donor mice.
For treatment of early-stage tumors, the animals were again pooled before distribution to the various treatment and control groups. For treatment of animals with advanced-stage disease, tumors were allowed to grow to the pre-determined size window (tumors outside the range were excluded) and animals were evenly distributed to various treatment and control groups. Treatment of each animal was based on individual body weight. Treated animals were checked daily for treatment related toxicity/mortality. Each group of animals was weighed before the initiation of treatment (Wt1) and then again following the last treatment dose (Wt2). The difference in body weight (Wt2−Wt1) provides a measure of treatment-related toxicity. Tumor response was determined by measurement of tumors with a caliper twice a week, until the tumors reach a predetermined “target” size of 1 gm. Tumor weights (mg) were estimated from the formula: Tumor weight=(length×width2)÷2 Antitumor activity was evaluated at the maximum tolerated dose (MTD) which is defined as the dose level immediately below which excessive toxicity (i.e. more than one death) occurred. […] When death occurs, the day of death was recorded.

Consider `Cc1nc(Nc2ncc(C(=O)Nc3c(C)cccc3Cl)s2)cc(N2CCN(CCO)CC2)n1` [Compound 1, ′N-(2-Chloro-6-methylphenyl)-2-[[6-[4-(2-hydroxyethyl)-1-piperazinyl]-2-methyl-4-pyrimidinyl]amino]-5-thiazolecarboxamide], for which, in test [1], the “inhibition of Src family kinases” value was “potently inhibits”. In addition, in test [2], the “growth delay (T-C)” value was determined as 4.5 days and the “tumor growth inhibition (% T/C)” value was 58%.
